Assay results from ChEMBL document CHEMBL5576131, “Atropisomerism Observed in Galactose-Based Monosaccharide Inhibitors of Galectin-3 Comprising 2-Methyl-4-phenyl-2,4-dihydro-3H-1,2,4-triazole-3-thione” (J Med Chem, 2024).

Legend:
[1] = AUC (0 to 24 hrs) in male C57BL/6 mouse at 10 mg/kg, po measured after 24 hrs by UPLC/MS/MS analysis; type: ADME, organism-based; settings: in vivo
[2] = Tmax in male C57BL/6 mouse at 10 mg/kg, po measured after 24 hrs by UPLC/MS/MS analysis; type: ADME, organism-based; settings: in vivo
[3] = Cmax in male C57BL/6 mouse at 10 mg/kg, po measured after 24 hrs by UPLC/MS/MS analysis; type: ADME, organism-based; settings: in vivo
[4] = Permeability of the compound at pH 7.4 incubated for 4 hrs by PAMPA; type: ADME; settings: for Papp at 4 h: PAMPA, pH 7.4, read-out: permeability; for permeability: pampa, pH 7.4, 4 h
[5] = Permeability of the compound at pH 5.5 incubated for 4 hrs by PAMPA; type: ADME; settings: for Papp at 4 h: PAMPA, pH 5.5, read-out: permeability
[6] = biological target: Galectin-3 (Mus musculus, UniProt P16110); assay: Inhibition of his-tagged N-terminal recombinant mouse Gal-3 preincubated for 30 mins followed by Biotin-ASF addition and measured after 1 hr by HTRF assay
Chain of Galectin-3 (Mus musculus, UniProt P16110) (P16110 whole entry): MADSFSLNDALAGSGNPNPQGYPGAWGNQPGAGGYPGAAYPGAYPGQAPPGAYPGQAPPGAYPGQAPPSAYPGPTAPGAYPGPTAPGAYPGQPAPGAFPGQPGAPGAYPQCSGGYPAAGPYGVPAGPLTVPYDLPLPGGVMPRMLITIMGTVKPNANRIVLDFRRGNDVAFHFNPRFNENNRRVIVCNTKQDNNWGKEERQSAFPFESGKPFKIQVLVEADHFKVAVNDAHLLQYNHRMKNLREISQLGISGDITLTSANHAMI

[7] = Permeability of the compound across apical to basolateral side in human Caco-2 cells assessed as drug recovery at pH 7.4 incubated for 2 hrs by LC-MS/MS analysis; type: ADME, cell-based; settings: Caco-2, pH 7.4, read-out: Drug recovery
[8] = Permeability of the compound across basolateral to apical side in human Caco-2 cells assessed as drug recovery at pH 7.4 incubated for 2 hrs by LC-MS/MS analysis; type: ADME, cell-based; settings: Caco-2, pH 7.4, read-out: Drug recovery
[9] = Permeability of the compound in human Caco-2 cells across basolateral to apical side at pH 7.4 incubated for 2 hrs by LC-MS/MS analysis; type: ADME, cell-based; settings: Caco-2, pH 7.4, read-out: permeability
[10] = Permeability of the compound in human Caco-2 cells across apical to basolateral side at pH 7.4 incubated for 2 hrs by LC-MS/MS analysis; type: ADME, cell-based; settings: Caco-2, pH 7.4, read-out: permeability
[11] = biological target: Galectin-3 (Homo sapiens, UniProt P17931); assay: Inhibition of his-tagged N-terminal recombinant human Gal-3 preincubated for 30 mins followed by Biotin-ASF addition and measured after 1 hr by HTRF assay
Chain of Galectin-3 (Homo sapiens, UniProt P17931) (P17931 whole entry): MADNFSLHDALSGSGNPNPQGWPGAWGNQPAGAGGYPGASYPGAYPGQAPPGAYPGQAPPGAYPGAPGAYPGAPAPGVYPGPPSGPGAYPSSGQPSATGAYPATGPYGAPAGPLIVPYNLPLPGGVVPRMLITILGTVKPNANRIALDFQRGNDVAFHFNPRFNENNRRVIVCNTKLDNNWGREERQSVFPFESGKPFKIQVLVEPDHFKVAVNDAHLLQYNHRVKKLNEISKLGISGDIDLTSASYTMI

[12] = biological target: Galectin-1 (Homo sapiens, UniProt P09382); assay: Inhibition of his-tagged N-terminal human Gal-1 preincubated for 30 mins followed by Biotin-ASF addition and measured after 1 hr by HTRF assay
Chain of Galectin-1 (P09382 whole entry): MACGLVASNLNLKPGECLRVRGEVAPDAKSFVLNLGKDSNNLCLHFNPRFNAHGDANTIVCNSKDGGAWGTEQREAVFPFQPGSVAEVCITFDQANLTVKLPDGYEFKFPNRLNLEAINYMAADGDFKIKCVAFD

[13] = biological target: Galectin-9 (Homo sapiens, UniProt O00182); assay: Inhibition of his-tagged N-terminal human Gal-9 preincubated for 30 mins followed by Biotin-ASF addition and measured after 1 hr by HTRF assay
Chain of Galectin-9 (O00182 whole entry): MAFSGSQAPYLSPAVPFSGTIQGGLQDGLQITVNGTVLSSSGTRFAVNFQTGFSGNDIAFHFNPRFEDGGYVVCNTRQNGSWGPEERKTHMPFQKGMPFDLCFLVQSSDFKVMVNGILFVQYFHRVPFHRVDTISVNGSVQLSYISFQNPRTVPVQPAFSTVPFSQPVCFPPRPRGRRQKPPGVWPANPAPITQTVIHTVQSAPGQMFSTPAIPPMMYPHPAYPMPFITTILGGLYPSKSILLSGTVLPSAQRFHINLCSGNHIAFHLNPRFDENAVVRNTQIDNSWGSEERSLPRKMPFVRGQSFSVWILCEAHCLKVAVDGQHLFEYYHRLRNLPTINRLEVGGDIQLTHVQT

Row | SMILES | Papp at 4 h [4] [×10⁻⁶ cm/s] | Papp at 4 h [5] [×10⁻⁶ cm/s] | IC50 [6] [nM] | IC50 [11] [nM] | other results
1 | OC[C@H]1O[C@@H](c2ncnn2-c2ccc(Cl)c(Cl)c2)[C@H](O)[C@@H](n2cc(-c3cc(F)c(F)c(F)c3)nn2)[C@H]1O |  |  |  |  | AUC(0-t) at 24 h [1]: 1.8 µM·h; Tmax [2]: 3 h; Cmax [3]: 410 nM
2 | OC[C@H]1O[C@@H](c2n[nH]c(=S)n2-c2cc(Cl)ccc2OC(F)(F)F)[C@H](O)[C@@H](n2cc(-c3ccc(Cl)c(F)c3F)nn2)[C@H]1O (stereo in doubt; 16) | 0.2 | 1.1 | 50 | 7 | recovery at 2 h [7]: 67%; recovery at 2 h [8]: 81%; Papp B→A at 2 h [9]: 3.2 ×10⁻⁶ cm/s; Papp A→B at 2 h [10]: < 1.5 ×10⁻⁶ cm/s
3 | CO[C@@H]1[C@@H](n2cc(-c3ccc(Br)c(F)c3)nn2)[C@@H](O)[C@@H](CO)O[C@H]1c1nncn1-c1cc(Cl)ccc1C(F)(F)F | 22 | 20 | 71 | 22 | 
4 | Cc1nc([C@@H]2O[C@H](CO)[C@H](O)[C@H](n3cc(-c4cc(F)c(Cl)c(F)c4)nn3)[C@H]2O)n(-c2cc(Cl)ccc2C(F)(F)F)n1 |  |  |  |  | Tmax [2]: 3 h
5 | OC[C@H]1O[C@@H](c2n[nH]c(=S)n2-c2cc(Cl)ccc2OC(F)(F)F)[C@H](O)[C@@H](n2cc(-c3ccc(Cl)c(F)c3F)nn2)[C@H]1O (stereo in doubt; 17) |  |  | 720 | 70 | permeability [4]: 0.2 ×10⁻⁶ cm/s
6 | Cn1nc([C@@H]2O[C@H](CO)[C@H](O)[C@H](n3cc(-c4ccc(Br)c(F)c4F)nn3)[C@H]2O)n(-c2cc(Cl)ccc2C(F)(F)F)c1=S (stereo in doubt; 20) |  | 12 | 40 |  | recovery at 2 h [7]: 59%; IC50 [12]: 2400 nM; IC50 [13]: 7200 nM; permeability ([4]; 4 h): 8.6 ×10⁻⁶ cm/s; AUC(0-t) at 24 h [1]: 12 µM·h; recovery at 2 h [8]: 80%; Papp B→A at 2 h [9]: 15 ×10⁻⁶ cm/s; Papp A→B at 2 h [10]: < 1.5 ×10⁻⁶ cm/s; Tmax [2]: 3 h; Cmax [3]: 1900 nM
7 | OC[C@H]1O[C@@H](c2nncn2-c2cc(Cl)ccc2C(F)(F)F)[C@H](OCC(F)(F)C(F)F)[C@@H](n2cc(-c3ccc(Br)c(F)c3F)nn2)[C@H]1O | 88 | 68 | 110 |  | 
8 | CO[C@@H]1[C@@H](n2cc(-c3ccc(Cl)c(F)c3F)nn2)[C@@H](O)[C@@H](CO)O[C@H]1c1nncn1-c1cc(Cl)ccc1OC(F)(F)F | 49 | 54 | 100 |  | IC50 [12]: 2000 nM; IC50 [13]: 2400 nM; AUC(0-t) at 24 h [1]: 16 µM·h; Tmax [2]: 3 h; Cmax [3]: 3000 nM
9 | OC[C@H]1O[C@H](Sc2ccc(Cl)c(Cl)c2)[C@H](O)[C@@H](n2cc(-c3cc(F)c(F)c(F)c3)nn2)[C@H]1O |  |  |  |  | AUC(0-t) at 24 h [1]: 84 µM·h; Tmax [2]: 7 h; Cmax [3]: 6300 nM
10 | OC[C@H]1O[C@@H](c2n[nH]c(=S)n2-c2cc(Cl)ccc2C(F)(F)F)[C@H](O)[C@@H](n2cc(-c3ccc(Br)c(F)c3F)nn2)[C@H]1O (stereo in doubt; 18) | 0.1 |  | 25 | 6.9 | 
11 | OC[C@H]1O[C@@H](c2n[nH]c(=S)n2-c2cc(Cl)ccc2C(F)(F)F)[C@H](O)[C@@H](n2cc(-c3ccc(Br)c(F)c3F)nn2)[C@H]1O (stereo in doubt; 19) |  |  | 1000 | 76 | permeability ([4]; 4 h): 0.2 ×10⁻⁶ cm/s
12 | Cn1nc([C@@H]2O[C@H](CO)[C@H](O)[C@H](n3cc(-c4ccc(Br)c(F)c4F)nn3)[C@H]2O)n(-c2cc(Cl)ccc2C(F)(F)F)c1=S (stereo in doubt; 21) |  |  | 3800 |  | permeability ([4]; 4 h): 28 ×10⁻⁶ cm/s; permeability ([5]; pampa, pH 5.5, 4 h, 4 h): 22 ×10⁻⁶ cm/s
13 | CO[C@@H]1[C@@H](n2cc(-c3ccc(Br)c(F)c3F)nn2)[C@@H](O)[C@@H](CO)O[C@H]1c1nncn1-c1cc(Cl)ccc1C(F)(F)F | 28 | 33 | 52 | 9 | 

Continued, in another order:

Row | Papp at 4 h [4] [×10⁻⁶ cm/s] | Papp at 4 h [5] [×10⁻⁶ cm/s] | IC50 [6] [nM] | IC50 [11] [nM] | SMILES | other results
14 | 18 | 21 | 62 |  | OC[C@H]1O[C@@H](c2nncn2-c2cc(Cl)ccc2OC(F)(F)F)[C@H](O)[C@@H](n2cc(-c3ccc(Br)c(F)c3F)nn2)[C@H]1O | 
15 | 1.7 | 3.6 | 350 |  | OC[C@H]1O[C@@H](c2nncn2-c2cc(Cl)ccc2Cl)[C@H](O)[C@@H](n2cc(-c3cc(F)c(Cl)c(F)c3)nn2)[C@H]1O | 
16 |  |  | 160 |  | CO[C@@H]1[C@@H](n2cc(-c3cc(F)c(Cl)c(F)c3)nn2)[C@@H](O)[C@@H](CO)O[C@H]1c1nncn1-c1cc(Cl)ccc1C(F)(F)F | IC50 [12]: 7000 nM; IC50 [13]: 7000 nM
17 | 27 |  | 100 | 13 | OC[C@H]1O[C@@H](c2nncn2-c2cc(Cl)ccc2OC(F)(F)F)[C@H](O)[C@@H](n2cc(-c3ccc(Cl)c(F)c3F)nn2)[C@H]1O | 
18 |  |  | 67 |  | Cc1nnc([C@@H]2O[C@H](CO)[C@H](O)[C@H](n3cc(-c4cc(F)c(Cl)c(F)c4)nn3)[C@H]2O)n1-c1cc(Cl)ccc1C(F)(F)F (stereo in doubt; 4) | IC50 [12]: 2500 nM; IC50 [13]: 4000 nM; permeability ([4]; 4 h): 4.4 ×10⁻⁶ cm/s
19 | 7 | 7 | 69 |  | OC[C@H]1O[C@@H](c2nncn2-c2cc(Cl)ccc2C(F)(F)F)[C@H](O)[C@@H](n2cc(-c3ccc(Br)c(F)c3F)nn2)[C@H]1O | 
20 |  |  | 7000 | 1300 | Cc1nnc([C@@H]2O[C@H](CO)[C@H](O)[C@H](n3cc(-c4cc(F)c(Cl)c(F)c4)nn3)[C@H]2O)n1-c1cc(Cl)ccc1C(F)(F)F (stereo in doubt; 5) | permeability ([4]; 4 h): 1.6 ×10⁻⁶ cm/s
21 | 2.1 | 1.8 | 100 |  | OC[C@H]1O[C@@H](c2nncn2-c2cc(Cl)ccc2C(F)(F)F)[C@H](O)[C@@H](n2cc(-c3ccc(Cl)c(F)c3)nn2)[C@H]1O | 
